Measured values reported in US5593984A, “Cephalosporin derivatives” (Yuhan Corporation, priority 1992, dated 1997).
Values after ≈ are worked out from the molar mass of the structure shown.

Tests used:
Assay type in all cases: cell-based
[1] = system: Prov. stuartii IFO 12930; assay: MIC by agar dilution, Prov. stuartii IFO 12930; details: Providencia stuartii, IFO12930, 17 h, Mueller-Hinton agar, read-out: Minimal Inhibitory Concentration (MIC)
How it was run: (§1)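 Agar dilution in Mueller-Hinton agar with two-fold compound dilutions. Each strain is inoculated at 10^6 CFU per ml and incubated at 35°-37° C. for 17±1 hours. Ceftazidime and cefotaxime serve as controls.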

[2] = system: Ent. aerogenes IFO 12979; assay: MIC by agar dilution, Ent. aerogenes IFO 12979; details: Klebsiella aerogenes, IFO12979, 17 h, Mueller-Hinton agar, read-out: Minimal Inhibitory Concentration (MIC)
How it was run: as §1

[3] = system: Ps. aeruginosa DY-2; assay: MIC by agar dilution, Ps. aeruginosa DY-2; details: Pseudomonas aeruginosa, DY2, 17 h; Ps. aeruginosa DY-2; agar dilution, Mueller-Hinton agar; read-out: Minimal Inhibitory Concentration (MIC)
How it was run: as §1

[4] = system: B. subtilis ATCC 6633; assay: MIC by agar dilution, B. subtilis ATCC 6633; details: Bacillus subtilis, ATCC6633, 17 h; B. subtilis ATCC 6633; agar dilution, Mueller-Hinton agar; read-out: Minimal Inhibitory Concentration (MIC)
How it was run: as §1

[5] = system: Ent. cloacae IFO 13535; assay: MIC by agar dilution, Ent. cloacae IFO 13535; details: Enterobacter cloacae, IFO13535, 17 h; Ent. cloacae IFO 13535; agar dilution, Mueller-Hinton agar; read-out: Minimal Inhibitory Concentration (MIC)
How it was run: as §1

[6] = system: P. vulgaris NCTC 8313; assay: MIC by agar dilution, P. vulgaris NCTC 8313; details: Proteus vulgaris, NCTC8313, 17 h; P. vulgaris NCTC 8313; agar dilution, Mueller-Hinton agar; read-out: Minimal Inhibitory Concentration (MIC)
How it was run: as §1

[7] = system: S. epidermidis ATCC 12228; assay: MIC by agar dilution, S. epidermidis ATCC 12228; details: Staphylococcus epidermidis, ATCC12228, 17 h; S. epidermidis ATCC 12228; agar dilution, Mueller-Hinton agar; read-out: Minimal Inhibitory Concentration (MIC)
How it was run: as §1

[8] = system: Ps. aeruginosa ATCC 10145; assay: MIC by agar dilution, Ps. aeruginosa ATCC 10145; details: Pseudomonas aeruginosa, ATCC10145, 17 h, Mueller-Hinton agar, read-out: Minimal Inhibitory Concentration (MIC)
How it was run: as §1

[9] = system: Ps. aeruginosa NCTC 10490; assay: MIC by agar dilution, Ps. aeruginosa NCTC 10490; details: Pseudomonas aeruginosa, NCTC10490, 17 h, Mueller-Hinton agar, read-out: Minimal Inhibitory Concentration (MIC)
How it was run: as §1

[10] = system: Ser. marcescens IFO 12648; assay: MIC by agar dilution, Ser. marcescens IFO 12648; details: Serratia marcescens, IFO12648, 17 h; Ser. marcescens IFO 12648; agar dilution, Mueller-Hinton agar; read-out: Minimal Inhibitory Concentration (MIC)
How it was run: as §1

[11] = system: Staph. aureus Smith; assay: MIC by agar dilution, Staph. aureus Smith; details: Staphylococcus aureus, 17 h, Mueller-Hinton agar, read-out: Minimal Inhibitory Concentration (MIC)
How it was run: as §1

[12] = system: E. coli NIHJ JC-2; assay: MIC by agar dilution, E. coli NIHJ JC-2; details: Escherichia coli, NIHJJC2, 17 h; E. coli NIHJ JC-2; agar dilution, Mueller-Hinton agar; read-out: Minimal Inhibitory Concentration (MIC)
How it was run: as §1

[13] = system: K. pneumoniae NCTC 9632; assay: MIC by agar dilution, K. pneumoniae NCTC 9632; details: Klebsiella pneumoniae, NCTC9632, 17 h; K. pneumoniae NCTC 9632; agar dilution, Mueller-Hinton agar; read-out: Minimal Inhibitory Concentration (MIC)
How it was run: as §1

[14] = system: E. coli No. 29; assay: MIC by agar dilution, E. coli No. 29; details: Escherichia coli, 17 h; E. coli No. 29; agar dilution, Mueller-Hinton agar; read-out: Minimal Inhibitory Concentration (MIC)
How it was run: as §1

[15] = system: M. morganii DY-1; assay: MIC by agar dilution, M. morganii DY-1; details: Morganella morganii, DY1, 17 h; M. morganii DY-1; agar dilution, Mueller-Hinton agar; read-out: Minimal Inhibitory Concentration (MIC)
How it was run: as §1

[16] = system: E. coli DY-1; assay: MIC by agar dilution, E. coli DY-1; details: Escherichia coli, DY1, 17 h; E. coli DY-1; agar dilution, Mueller-Hinton agar; read-out: Minimal Inhibitory Concentration (MIC)
How it was run: as §1

[17] = system: Staph. aureus C-5113; assay: MIC by agar dilution, Staph. aureus C-5113; details: Staphylococcus aureus, C5113, 17 h, Mueller-Hinton agar, read-out: Minimal Inhibitory Concentration (MIC)
How it was run: as §1

[18] = system: Staph. aureus ATCC 6538P; assay: MIC by agar dilution, Staph. aureus ATCC 6538P; details: Staphylococcus aureus, ATCC6538P, 17 h; Staph. aureus ATCC 6538P; agar dilution, Mueller-Hinton agar; read-out: Minimal Inhibitory Concentration (MIC)
How it was run: as §1

[19] = system: Staph. aureus C-57; assay: MIC by agar dilution, Staph. aureus C-57; details: Staphylococcus aureus, C57, 17 h, Mueller-Hinton agar, read-out: Minimal Inhibitory Concentration (MIC)
How it was run: as §1

[20] = system: Staph. aureus C-5216; assay: MIC by agar dilution, Staph. aureus C-5216; details: Staphylococcus aureus, C5216, 17 h, Mueller-Hinton agar, read-out: Minimal Inhibitory Concentration (MIC)
How it was run: as §1

| Compound | MIC [1] [µg/mL] | MIC [2] [µg/mL] | MIC [3] [µg/mL] | MIC [4] [µg/mL] | MIC [5] [µg/mL] | MIC [6] [µg/mL] | MIC [7] [µg/mL] | MIC [8] [µg/mL] | MIC [9] [µg/mL] | MIC [10] [µg/mL] | MIC [11] [µg/mL] | MIC [12] [µg/mL] | MIC [13] [µg/mL] | MIC [14] [µg/mL] | MIC [15] [µg/mL] | MIC [16] [µg/mL] | MIC [17] [µg/mL] | MIC [18] [µg/mL] | MIC [19] [µg/mL] | MIC [20] [µg/mL] |
| --- | --- | --- | --- | --- | --- | --- | --- | --- | --- | --- | --- | --- | --- | --- | --- | --- | --- | --- | --- | --- |
| CO/N=C(\C(=O)N[C@@H]1C(=O)N2C(C(=O)[O-])=C(C[n+]3cc(C(=O)O)n4cccc4c3)CS[C@H]12)c1csc(N)n1 [Ex. 39, 7-β-[(Z)-2-(2-aminothiazol-4-yl)-2-methoxyiminoacetamido]-3-(4-carboxypyrrolo[1,2-a]pyrazinium-2-yl)methyl-3-cephem-4-carboxylate] | ≤ 0.006 | ≤ 0.006 | 6.25 (≈ 11.2 µM) | 0.2 (≈ 0.359 µM) | 0.012 (≈ 0.0215 µM) | ≤ 0.006 | 0.05 (≈ 0.0897 µM) | 0.78 (≈ 1.4 µM) | 0.2 (≈ 0.359 µM) | ≤ 0.006 | 1.56 (≈ 2.8 µM) | ≤ 0.006 | ≤ 0.006 | ≤ 0.006 | ≤ 0.006 | ≤ 0.006 | 1.56 (≈ 2.8 µM) | 0.39 (≈ 0.699 µM) | 50 (≈ 89.7 µM) | 1.56 (≈ 2.8 µM) |
| CO/N=C(\C(=O)N[C@@H]1C(=O)N2C(C(=O)[O-])=C(C[n+]3ccn4cccc4c3C)CS[C@H]12)c1csc(N)n1 [Ex. 40, 7-β-[(Z)-2-(2-aminothiazol-4-yl)-2-methoxylminoacetamido]-3-(1-methylpyrrolo[1,2-a]pyrazinium-2-yl)methyl-3-cephem-4-carboxylate] | ≤ 0.006 | 0.012 (≈ 0.0227 µM) | 3.13 (≈ 5.93 µM) | 0.1 (≈ 0.19 µM) | 0.025 (≈ 0.0474 µM) | 0.012 (≈ 0.0227 µM) | 0.05 (≈ 0.0948 µM) | 0.78 (≈ 1.48 µM) | 0.39 (≈ 0.739 µM) | 0.012 (≈ 0.0227 µM) | 0.2 (≈ 0.379 µM) | 0.012 (≈ 0.0227 µM) | ≤ 0.006 | ≤ 0.006 | 0.012 (≈ 0.0227 µM) | ≤ 0.006 | 0.78 (≈ 1.48 µM) | 0.05 (≈ 0.0948 µM) | 12.5 (≈ 23.7 µM) | 0.78 (≈ 1.48 µM) |
| CCO/N=C(\C(=O)N[C@@H]1C(=O)N2C(C(=O)[O-])=C(C[n+]3ccn4cccc4c3C)CS[C@H]12)c1csc(N)n1 [Ex. 41, 7-β-[(Z)-2-(2-aminothiazol-4-yl)-2-ethoxyiminoacetamido]-3-(1-methylpyrrolo[1,2-a]pyrazinium-2-yl)methyl-3-cephem-4-carboxylate] | 0.012 (≈ 0.0222 µM) | 0.025 (≈ 0.0462 µM) | 3.13 (≈ 5.78 µM) | 0.2 (≈ 0.369 µM) | 0.2 (≈ 0.369 µM) | ≤ 0.006 | 0.1 (≈ 0.185 µM) | 1.56 (≈ 2.88 µM) | 0.39 (≈ 0.72 µM) | 0.05 (≈ 0.0923 µM) | 0.39 (≈ 0.72 µM) | 0.025 (≈ 0.0462 µM) | 0.025 (≈ 0.0462 µM) | 0.012 (≈ 0.0222 µM) | 0.025 (≈ 0.0462 µM) | 0.012 (≈ 0.0222 µM) | 0.78 (≈ 1.44 µM) | 0.2 (≈ 0.369 µM) | 12.5 (≈ 23.1 µM) | 1.56 (≈ 2.88 µM) |
| CCO/N=C(\C(=O)N[C@@H]1C(=O)N2C(C(=O)[O-])=C(C[n+]3ccn4c(Br)ccc4c3C)CS[C@H]12)c1csc(N)n1 [Ex. 42, 7-β-[(Z)-2-(2-aminothiazol-4-yl)-2-ethoxyiminoacetamido]-3-(6-bromo-1-methylpyrrolo[1,2-a]pyrazinium-2-yl)methyl-3-cephem-4-carboxylate] | 0.05 (≈ 0.0806 µM) | 0.05 (≈ 0.0806 µM) | 25 (≈ 40.3 µM) | 0.39 (≈ 0.629 µM) | 0.78 (≈ 1.26 µM) | 0.025 (≈ 0.0403 µM) | 0.1 (≈ 0.161 µM) | 6.25 (≈ 10.1 µM) | 3.13 (≈ 5.04 µM) | 0.2 (≈ 0.322 µM) | 1.56 (≈ 2.51 µM) | 0.2 (≈ 0.322 µM) | 0.2 (≈ 0.322 µM) | 0.05 (≈ 0.0806 µM) | 0.2 (≈ 0.322 µM) | 0.025 (≈ 0.0403 µM) | 1.56 (≈ 2.51 µM) | 0.39 (≈ 0.629 µM) | 25 (≈ 40.3 µM) | 3.13 (≈ 5.04 µM) |
